The test has as its target T1, platelet TP receptor (Homo sapiens, UniProt P21731).
T1 construct: endogenous in cells; host or cells: washed human platelets
T1 sequence (P21731 1-343): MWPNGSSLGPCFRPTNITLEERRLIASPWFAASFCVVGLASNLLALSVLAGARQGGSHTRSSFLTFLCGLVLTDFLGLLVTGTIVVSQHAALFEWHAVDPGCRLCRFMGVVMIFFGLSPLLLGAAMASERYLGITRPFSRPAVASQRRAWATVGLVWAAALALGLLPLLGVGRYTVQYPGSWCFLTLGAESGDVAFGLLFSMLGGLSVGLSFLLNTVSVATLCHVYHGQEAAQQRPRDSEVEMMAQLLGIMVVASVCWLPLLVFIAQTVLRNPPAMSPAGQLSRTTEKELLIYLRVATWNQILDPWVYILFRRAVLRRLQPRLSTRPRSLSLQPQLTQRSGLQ
Description: binding of 125I-BOP to platelets. The method, then: Washed platelets were prepared as described above, except that the platelet suspension was made up at a concentration of 10×10^6 cells/0.5 ml. The binding assay involved the addition of radioligand (30,000 cpm ^125I-BOP) to all tubes in triplicate, and either various doses of unlabeled I-BOP (10^−9-10^−7 M), PBT-3 (10^−9-10^−7 M) or U46619 (10^−9-10^−7 M) in 1 μl ethanol. Additional tubes containing excess unlabeled I-BOP were included to assess the extent of non-specific binding.

One may read the pIC50 as −log10 of the IC50, conventionally taken in molar units.

Molecules are shown by their SMILES. pIC50: −log10 of the molar value.

Regarding `CCCCC/C=C\CC1CC1[C@@H](O)/C=C\C/C=C\CCCC(=O)OC` (stereo partly drawn) [PBT-3, 10(S)-hydroxy-11,12-cyclopropyl-eicosa-5Z,8Z,14Z-trienoic acid methyl ester], the “fold less active than I-BOP in competing with 125I-BOP binding” value is reported as “about 16 fold”. Also, the pIC50 (10×10^6 cells/0.5 ml, read-out: IC50 for competition with 125I-BOP binding to platelets) is 8.09.

(Values after US8071654B2, “Inhibitors of thromboxane formation and action” (priority 2000, dated 2011).)
